The record followed here is BindingDB's records for doi:10.1021/cb800306y (Stony Brook University, 2009).

Assay [1] concerns the target T1, Enoyl-[acyl-carrier-protein] reductase [NADH] (Francisella tularensis subsp. novicida (strain U112), UniProt A0Q794).
T1 sequence (A0Q794 whole entry): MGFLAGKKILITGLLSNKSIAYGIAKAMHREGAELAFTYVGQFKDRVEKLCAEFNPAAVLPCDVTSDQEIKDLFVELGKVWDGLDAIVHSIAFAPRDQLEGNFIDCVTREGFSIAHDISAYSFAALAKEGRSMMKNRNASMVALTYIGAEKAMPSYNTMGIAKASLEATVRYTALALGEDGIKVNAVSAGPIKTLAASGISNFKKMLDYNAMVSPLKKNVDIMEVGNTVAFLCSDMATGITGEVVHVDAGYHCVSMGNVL
As to the kind of experiment: Enzyme Inhibition Assay. The settings on record: pH 8; 25 °C. From the text:
Inhibition constant binding to E-NAD+

Assay [2] concerns the target T1, Enoyl-[acyl-carrier-protein] reductase [NADH]. As to the kind of experiment: Enzyme Inhibition Assay. The settings on record: pH 8; 25 °C. The text has this: Inhibition constant binding to E-NADH
This is another data set of the same source.

Regarding `Oc1cc(Cl)ccc1Oc1ccc(Cl)cc1Cl`, the Ki (as a rule, the dissociation constant of the complex between target and ligand, obtained from inhibition or displacement) in assay [1] came to 0.051 nM; in assay [2] it was 5000 nM.

On to `CCCCCCCCc1ccc(Oc2ccccc2)c(O)c1` [5-Octyl-2-phenoxy-phenol], for which the inhibition constant Ki is 23.6 nM in assay [1] and 192 nM in assay [2].

For the compound `CCCCCCc1ccc(Oc2ccccc2)c(O)c1` [5-hexyl-2-phenoxyphenol], the Ki turned out to be 2.7 nM in assay [1] and 331 nM in assay [2].

As for `CCc1ccc(Oc2ccccc2)c(O)c1` [PT01], the figures for the Ki in assay [1] and in assay [2] were 2.1 nM and 311 nM, respectively.

As to `CCCc1ccc(Oc2ccccc2)c(O)c1` [PT02], the Ki worked out at 0.44 nM in assay [1] and 696 nM in assay [2].

`Oc1cc(Cl)ccc1Oc1ccccc1` [PT52]: the inhibitory constant (Ki) in assay [1] came to 1.9 nM; in assay [2], 308 nM.

Regarding `Cc1ccc(Oc2ccccc2)c(O)c1` [PT53], the Ki in assay [1] worked out at 1.9 nM; in assay [2], 247 nM.

In assay [1], `Oc1cc(F)ccc1Oc1ccccc1` [PT55] gave a Ki of 289 nM.
